Earlier results on three compounds are cited in patent publication US20220226302A1, “ENHANCEMENT OF CAMP SIGNALING AS A COMBINATION DRUG STRATEGY FOR THE TREATMENT OF DEPRESSION AND RELATED CONDITIONS” (Altos Neuroscience, Inc., priority 2021, published 2022).

Molecules are shown by their SMILES.

The conditions of data set [1]: in vivo.
The subject of data set [2] is PDE4. To be noted: in vivo.
The test system of data set [3] is depression. To be noted: two acute treatment clinical trials, humans.
The test system of data set [4] is depression. The conditions noted are these: patients with depression, small clinical trials.
For data set [5], the system named is PDE4.

In the case of `O=C(Nc1c(Cl)cncc1Cl)c1ccc(OC(F)F)c(OCC2CC2)c1` [Roflumilast, roflumilast], the brain penetration result in data set [1] is “can also reach the brain”. Besides, in the data set on PDE4 [2], the antidepressant effect entry is listed as “no evidence of an antidepressant effect” and the pro-cognitive effect entry is “pro-cognitive effects”.
Take `CCOC(=O)COc1ccc2c(c1)C[C@@H](NC[C@H](O)c1cccc(Cl)c1)CC2` [amibegron]: the brain penetration entry in data set [1] is “brain penetrant”. Also, in the data set with depression [3], the “efficacy in clinical trials for depression” value was “failed to show efficacy in two acute treatment clinical trials”. For the same compound, the “antidepressant-like effects in animals” value in the data set on β3 adrenergic receptor is “promising antidepressant-like effects in animals”.
With `COc1ccc(C2CNC(=O)C2)cc1OC1CCCC1` (centres unmarked) [rolipram], the “improvement in depression versus TCA medications” value in the data set with depression [4] is “In none of these studies, however, did rolipram produce a greater improvement in depression than the TCA medications”. Moreover, the “phenotype of treated mice” value in the data set with PDE4 [5] is “antidepressant and pro-cognitive phenotypes”.
